# Measured values from patent publication US20130090280A1, “CLEANING COMPOSITIONS AND METHODS” (HONEYWELL INTERNATIONAL INC., priority 2011, published 2013).
# Read-outs that look alike come from different tables or passages of the source.
# Assays:
# [1] = miscibility test, equal parts by weight of solvent and oils, visual observation; assay type: physicochemical
# Excerpt: Applicants compared the solubility of various materials which may be considered as soils to be cleaned in 1233zd(E) in Table 3. […] In all cases, the solvent looked clear and the mixtures are reported as miscible below. This is an initial mode of testing to check how well the solvent performs in dissolving the soils.
# [2] = chemical stability, reflux with metals and moisture, ion chromatography of aqueous wash; assay type: physicochemical
# Excerpt: The chemical stability of the compound 1233zd(E) by itself and also in the presence of water, metals, flux is another important factor to be considered in the identification of a successful solvent. […] This test continued for 2 weeks.
# Solvent was boiled with water alone or in presence of various metal coupons such as stainless steel 304, cold-rolled steel, galvanized steel, copper, and aluminum. The coupons were partially immersed in the solvent which allowed the state of the coupons at the interface of liquid and vapor to be viewed. […] After the test, coupons were observed visually for rusting or pitting and the remaining solvent in the flask was examined for breakdown products including chlorides and fluorides which are good indicators of breakdown of solvents.
# [3] = selected physical properties of solvents
# Excerpt: In the table Perc, is used as an abbreviation for perchloroethylene.
# [4] = 0.2% moisture added, reflux 100 hours, AL
# [5] = 0.2% moisture added, reflux 100 hours, CRS
# [6] = 0.2% moisture added, reflux 100 hours, CU
# [7] = 0.2% moisture added, reflux 100 hours, GAL
# [8] = 0.2% moisture added, reflux 100 hours, S.S 304
# [9] = 0.2% moisture added, reflux 100 hours, no metal
# [10] = no additional moisture, reflux, AL
# [11] = no additional moisture, reflux, CRS
# [12] = no additional moisture, reflux, CU
# [13] = no additional moisture, reflux, GAL
# [14] = no additional moisture, reflux, S.S 304
# [15] = no additional moisture, reflux, no metal
# [16] = no additional moisture, virgin/no reflux
compound,measurement,setting,value
"FC(F)(F)/C=C/Cl [1233zd(E), trans-1-chloro-3,3,3-trifluoropropene]",Soil Dissolution in solvent,[1]; Mineral Oil,Miscible
same,Soil Dissolution in solvent,[1]; Refrigerant oil,Miscible
same,Soil Dissolution in solvent,[1]; Silicone Lubricant,Miscible
same,Soil Dissolution in solvent,[1]; Solder Flux,Miscible
same,Acetate,[2]; [4],0.04 ppm
same,Br^−,[2]; [4],<0.05 ppm
same,Cl^−,[2]; [4],0.08 ppm
same,F^−,[2]; [4],0.05 ppm
same,Formate,[2]; [4],0.10 ppm
same,NO3^−,[2]; [4],<0.05 ppm
same,PO4^−3,[2]; [4],<0.10 ppm
same,SO4^−2,[2]; [4],0.18 ppm
same,Acetate,[2]; [5],0.07 ppm
same,Br^−,[2]; [5],<0.05 ppm
same,Cl^−,[2]; [5],0.07 ppm
same,F^−,[2]; [5],0.05 ppm
same,Formate,[2]; [5],0.14 ppm
same,NO3^−,[2]; [5],0.10 ppm
same,PO4^−3,[2]; [5],<0.10 ppm
same,SO4^−2,[2]; [5],0.26 ppm
same,Acetate,[2]; [6],0.09 ppm
same,Br^−,[2]; [6],<0.05 ppm
same,Cl^−,[2]; [6],0.08 ppm
same,F^−,[2]; [6],0.06 ppm
same,Formate,[2]; [6],0.16 ppm
same,NO3^−,[2]; [6],0.15 ppm
same,PO4^−3,[2]; [6],<0.10 ppm
same,SO4^−2,[2]; [6],0.31 ppm
same,Acetate,[2]; [7],0.04 ppm
same,Br^−,[2]; [7],<0.05 ppm
same,Cl^−,[2]; [7],0.07 ppm
same,F^−,[2]; [7],0.05 ppm
same,Formate,[2]; [7],0.08 ppm
same,NO3^−,[2]; [7],<0.05 ppm
same,PO4^−3,[2]; [7],<0.10 ppm
same,SO4^−2,[2]; [7],0.19 ppm
same,Acetate,[2]; [8],0.04 ppm
same,Br^−,[2]; [8],<0.05 ppm
same,Cl^−,[2]; [8],0.07 ppm
same,F^−,[2]; [8],0.06 ppm
same,Formate,[2]; [8],0.08 ppm
same,NO3^−,[2]; [8],<0.05 ppm
same,PO4^−3,[2]; [8],<0.10 ppm
same,SO4^−2,[2]; [8],0.18 ppm
same,Acetate,[2]; [9],0.08 ppm
same,Br^−,[2]; [9],<0.05 ppm
same,Cl^−,[2]; [9],0.08 ppm
same,F^−,[2]; [9],0.05 ppm
same,Formate,[2]; [9],0.12 ppm
same,NO3^−,[2]; [9],<0.05 ppm
same,PO4^−3,[2]; [9],<0.10 ppm
same,SO4^−2,[2]; [9],0.23 ppm
same,Acetate,[2]; [10],0.12 ppm
same,Br^−,[2]; [10],<0.05 ppm
same,Cl^−,[2]; [10],0.14 ppm
same,F^−,[2]; [10],0.09 ppm
same,Formate,[2]; [10],0.26 ppm
same,NO3^−,[2]; [10],0.19 ppm
same,PO4^−3,[2]; [10],<0.10 ppm
same,SO4^−2,[2]; [10],0.45 ppm
same,Acetate,[2]; [11],0.08 ppm
same,Br^−,[2]; [11],<0.05 ppm
same,Cl^−,[2]; [11],0.12 ppm
same,F^−,[2]; [11],0.08 ppm
same,Formate,[2]; [11],0.17 ppm
same,NO3^−,[2]; [11],0.06 ppm
same,PO4^−3,[2]; [11],<0.10 ppm
same,SO4^−2,[2]; [11],0.17 ppm
same,Acetate,[2]; [12],0.12 ppm
same,Br^−,[2]; [12],<0.05 ppm
same,Cl^−,[2]; [12],0.9 ppm
same,F^−,[2]; [12],0.09 ppm
same,Formate,[2]; [12],0.10 ppm
same,NO3^−,[2]; [12],0.12 ppm
same,PO4^−3,[2]; [12],<0.10 ppm
same,SO4^−2,[2]; [12],0.41 ppm
same,Acetate,[2]; [13],0.12 ppm
same,Br^−,[2]; [13],<0.05 ppm
same,Cl^−,[2]; [13],0.12 ppm
same,F^−,[2]; [13],0.08 ppm
same,Formate,[2]; [13],0.22 ppm
same,NO3^−,[2]; [13],0.14 ppm
same,PO4^−3,[2]; [13],<0.10 ppm
same,SO4^−2,[2]; [13],0.30 ppm
same,Acetate,[2]; [14],0.10 ppm
same,Br^−,[2]; [14],<0.05 ppm
same,Cl^−,[2]; [14],0.11 ppm
same,F^−,[2]; [14],0.08 ppm
same,Formate,[2]; [14],0.12 ppm
same,NO3^−,[2]; [14],0.06 ppm
same,PO4^−3,[2]; [14],<0.10 ppm
same,SO4^−2,[2]; [14],0.18 ppm
same,Acetate,[2]; [15],0.13 ppm
same,Br^−,[2]; [15],<0.05 ppm
same,Cl^−,[2]; [15],0.16 ppm
same,F^−,[2]; [15],0.09 ppm
same,Formate,[2]; [15],0.19 ppm
same,NO3^−,[2]; [15],0.12 ppm
same,PO4^−3,[2]; [15],<0.10 ppm
same,SO4^−2,[2]; [15],0.29 ppm
same,Acetate,[2]; [16],0.13 ppm
same,Br^−,[2]; [16],<0.05 ppm
same,Cl^−,[2]; [16],0.11 ppm
same,F^−,[2]; [16],0.08 ppm
same,Formate,[2]; [16],0.35 ppm
same,NO3^−,[2]; [16],0.06 ppm
same,PO4^−3,[2]; [16],<0.10 ppm
same,SO4^−2,[2]; [16],0.21 ppm
same,breakdown products in solvent after reflux,"[2]; reflux with individual metals and added moisture (0.20% H2O), 100 hours",no increase of chlorides and fluorides in the solvent over the baseline and no other degradation products
same,Boiling Point,[3],19.52 °C
same,Flash Point,[3],None
same,Kauri-Butanol value,[3],25
same,flammability,[3],completely non-flammable
same,Vapor Pressure,[3]; @20 C.,15.23 psi
same,Heat of Vaporization,[3]; at bp,193.9 kJ/kg
"FC(F)(Cl)C(F)(Cl)Cl [CFC-113, 1,1,2-trichlorotrifluoroethane]",Boiling Point,[3],47.6 °C
same,Flash Point,[3],None
same,Kauri-Butanol value,[3],32
same,Vapor Pressure,[3],5.27 psi
same,Heat of Vaporization,[3]; at bp,144.7 kJ/kg
FC(C(F)C(F)(F)C(F)(F)F)C(F)(F)F (stereo not drawn) [HFC 43-10mee],Boiling Point,[3],54 °C
same,Flash Point,[3],None
same,Vapor Pressure,[3],4.4 psi
same,Heat of Vaporization,[3]; at bp,129.7 kJ/kg
"ClC(Cl)=C(Cl)Cl [Perc, perchloroethylene]",Boiling Point,[3],121.3 °C
same,Flash Point,[3],None
same,Vapor Pressure,[3]; @20 C.,0.27 psi
same,Heat of Vaporization,[3]; at bp,207 kJ/kg
"CCCBr [n-Propyl Bromide, n-propyl bromide, reference compound]",Soil Dissolution in solvent,[1]; Mineral Oil,Miscible
same,Soil Dissolution in solvent,[1]; Refrigerant oil,Miscible
same,Soil Dissolution in solvent,[1]; Silicone Lubricant,Miscible
same,Soil Dissolution in solvent,[1]; Solder Flux,Miscible
same,Boiling Point,[3],71 °C
same,Flash Point,[3],None
same,Vapor Pressure,[3]; @20 C.,2.1 psi
same,Heat of Vaporization,[3]; at bp,246 kJ/kg
O [water],surface tension,[3],72.1 dynes/cm
dichloropentafluoropropane [HCFC-225],Boiling Point,[3],54 °C
same,Flash Point,[3],None
same,Vapor Pressure,[3]; @20 C.,5.6 psi
same,Heat of Vaporization,[3]; @25° C.,145@25 °C kJ/kg
